Measured values as given in ChEMBL document CHEMBL5291721, “A preclinical secondary pharmacology resource illuminates target-adverse drug reaction associations of marketed drugs” (Nat Commun, 2023).

Columns and labels:
[1] = target: 5-hydroxytryptamine receptor 2B (Homo sapiens, UniProt P41595); assay type: functional, cell-based
[2] = target: T1, 5-hydroxytryptamine receptor 3A (Homo sapiens, UniProt P46098); assay type: functional
T1 sequence (P46098 whole entry): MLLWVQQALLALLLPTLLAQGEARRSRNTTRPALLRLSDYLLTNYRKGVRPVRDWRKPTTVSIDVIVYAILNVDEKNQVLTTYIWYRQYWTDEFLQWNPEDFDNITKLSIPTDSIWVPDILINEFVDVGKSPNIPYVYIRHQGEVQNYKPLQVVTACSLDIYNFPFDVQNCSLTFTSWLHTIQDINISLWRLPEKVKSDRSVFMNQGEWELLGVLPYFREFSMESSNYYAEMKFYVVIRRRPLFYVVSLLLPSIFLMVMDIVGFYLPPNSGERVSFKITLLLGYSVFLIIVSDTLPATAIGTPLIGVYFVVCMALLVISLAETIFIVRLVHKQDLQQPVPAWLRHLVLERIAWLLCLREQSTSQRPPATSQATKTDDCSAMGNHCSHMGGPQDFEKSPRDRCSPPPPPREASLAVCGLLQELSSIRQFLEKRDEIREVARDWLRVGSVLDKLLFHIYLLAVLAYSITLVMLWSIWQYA

[3] = target: 3',5'-cyclic-AMP phosphodiesterase 4D (Homo sapiens, UniProt Q08499); assay type: functional
[4] = target: T2, Progesterone receptor (Homo sapiens, UniProt P06401); assay type: functional
T2 sequence (P06401 whole entry): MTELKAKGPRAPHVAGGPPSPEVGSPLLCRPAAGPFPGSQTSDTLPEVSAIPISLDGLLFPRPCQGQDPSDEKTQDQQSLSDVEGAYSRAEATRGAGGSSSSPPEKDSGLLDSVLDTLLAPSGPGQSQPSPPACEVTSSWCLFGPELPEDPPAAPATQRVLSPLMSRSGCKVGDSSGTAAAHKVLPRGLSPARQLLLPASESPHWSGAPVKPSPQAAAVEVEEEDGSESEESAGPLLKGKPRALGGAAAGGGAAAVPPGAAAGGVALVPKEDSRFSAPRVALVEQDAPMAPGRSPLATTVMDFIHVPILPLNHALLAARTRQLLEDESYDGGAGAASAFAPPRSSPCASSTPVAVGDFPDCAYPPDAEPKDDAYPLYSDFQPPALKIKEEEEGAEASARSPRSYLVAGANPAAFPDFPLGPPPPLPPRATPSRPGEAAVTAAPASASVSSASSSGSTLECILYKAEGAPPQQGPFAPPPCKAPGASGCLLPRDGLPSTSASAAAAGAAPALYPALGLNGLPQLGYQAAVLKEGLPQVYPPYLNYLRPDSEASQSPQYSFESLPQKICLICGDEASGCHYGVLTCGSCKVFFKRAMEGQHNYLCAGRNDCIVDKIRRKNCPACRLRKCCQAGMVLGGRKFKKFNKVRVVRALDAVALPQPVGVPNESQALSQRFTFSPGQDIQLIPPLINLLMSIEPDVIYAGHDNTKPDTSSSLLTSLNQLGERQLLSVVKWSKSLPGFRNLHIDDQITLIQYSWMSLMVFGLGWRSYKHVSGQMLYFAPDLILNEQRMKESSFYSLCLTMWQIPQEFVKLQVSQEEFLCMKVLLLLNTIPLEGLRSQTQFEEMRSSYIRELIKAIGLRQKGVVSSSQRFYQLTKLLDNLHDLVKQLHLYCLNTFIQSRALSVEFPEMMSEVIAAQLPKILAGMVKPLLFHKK

[5] = target: T3, Equilibrative nucleoside transporter 1 (Homo sapiens, UniProt Q99808)
T3 sequence (Q99808 whole entry): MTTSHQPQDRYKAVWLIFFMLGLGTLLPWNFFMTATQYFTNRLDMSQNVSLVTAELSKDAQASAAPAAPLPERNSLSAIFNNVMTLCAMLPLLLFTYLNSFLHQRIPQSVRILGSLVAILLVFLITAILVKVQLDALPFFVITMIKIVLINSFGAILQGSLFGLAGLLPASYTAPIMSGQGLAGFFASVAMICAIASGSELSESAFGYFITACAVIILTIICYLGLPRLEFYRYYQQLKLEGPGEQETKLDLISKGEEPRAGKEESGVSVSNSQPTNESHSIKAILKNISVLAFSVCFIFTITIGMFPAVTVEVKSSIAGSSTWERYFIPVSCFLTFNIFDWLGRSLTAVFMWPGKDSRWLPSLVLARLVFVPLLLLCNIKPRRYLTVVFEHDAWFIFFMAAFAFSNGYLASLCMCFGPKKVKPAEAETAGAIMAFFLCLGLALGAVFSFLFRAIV

[6] = target: T4, Thromboxane A2 receptor (Homo sapiens, UniProt P21731)
T4 sequence (P21731 whole entry): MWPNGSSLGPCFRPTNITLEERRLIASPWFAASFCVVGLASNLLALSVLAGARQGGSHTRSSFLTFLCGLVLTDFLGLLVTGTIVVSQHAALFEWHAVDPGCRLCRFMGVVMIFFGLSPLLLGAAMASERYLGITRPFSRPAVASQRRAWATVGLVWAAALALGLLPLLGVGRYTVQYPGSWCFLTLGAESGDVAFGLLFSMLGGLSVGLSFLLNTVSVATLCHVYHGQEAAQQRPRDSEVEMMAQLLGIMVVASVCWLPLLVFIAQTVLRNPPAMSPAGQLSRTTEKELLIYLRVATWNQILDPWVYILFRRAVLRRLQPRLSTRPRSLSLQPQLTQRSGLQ

[7] = target: T5, Alpha-1A adrenergic receptor (Homo sapiens, UniProt P35348); assay type: functional, cell-based
T5 sequence (P35348 whole entry): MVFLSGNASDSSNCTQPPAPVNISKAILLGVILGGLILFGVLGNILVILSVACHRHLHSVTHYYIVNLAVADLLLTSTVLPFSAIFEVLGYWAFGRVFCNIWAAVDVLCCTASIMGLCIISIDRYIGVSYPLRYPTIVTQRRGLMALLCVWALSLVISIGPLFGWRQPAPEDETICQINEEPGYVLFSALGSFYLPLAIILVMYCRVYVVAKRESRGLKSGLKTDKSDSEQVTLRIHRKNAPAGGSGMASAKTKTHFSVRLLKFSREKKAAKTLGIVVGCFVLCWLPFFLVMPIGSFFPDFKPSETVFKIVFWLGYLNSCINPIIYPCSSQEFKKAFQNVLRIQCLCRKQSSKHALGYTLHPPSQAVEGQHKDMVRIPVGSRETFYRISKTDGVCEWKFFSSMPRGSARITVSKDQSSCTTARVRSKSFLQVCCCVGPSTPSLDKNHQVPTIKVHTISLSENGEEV
Also: assay procedure not described here.

Chain of 3',5'-cyclic-AMP phosphodiesterase 4D (Q08499 whole entry): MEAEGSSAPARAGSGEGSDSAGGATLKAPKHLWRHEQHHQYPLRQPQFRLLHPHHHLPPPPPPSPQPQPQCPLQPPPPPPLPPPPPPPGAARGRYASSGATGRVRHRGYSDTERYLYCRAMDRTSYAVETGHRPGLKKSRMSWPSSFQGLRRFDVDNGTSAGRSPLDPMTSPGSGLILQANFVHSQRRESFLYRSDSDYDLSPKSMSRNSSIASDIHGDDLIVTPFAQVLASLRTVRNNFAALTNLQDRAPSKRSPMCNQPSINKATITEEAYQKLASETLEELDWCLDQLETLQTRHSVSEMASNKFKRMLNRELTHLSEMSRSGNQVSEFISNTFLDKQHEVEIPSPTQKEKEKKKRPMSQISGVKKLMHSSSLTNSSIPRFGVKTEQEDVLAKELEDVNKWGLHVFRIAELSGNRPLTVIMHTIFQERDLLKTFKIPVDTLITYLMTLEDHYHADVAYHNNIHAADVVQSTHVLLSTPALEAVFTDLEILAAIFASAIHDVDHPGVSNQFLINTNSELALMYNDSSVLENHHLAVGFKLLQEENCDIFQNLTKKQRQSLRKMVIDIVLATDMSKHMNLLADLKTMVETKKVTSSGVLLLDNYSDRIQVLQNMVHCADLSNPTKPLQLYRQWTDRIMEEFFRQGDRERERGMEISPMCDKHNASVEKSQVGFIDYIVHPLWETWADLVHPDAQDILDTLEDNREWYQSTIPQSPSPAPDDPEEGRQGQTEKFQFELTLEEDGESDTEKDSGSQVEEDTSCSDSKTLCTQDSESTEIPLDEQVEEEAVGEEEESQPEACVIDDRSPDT
Chain of 5-hydroxytryptamine receptor 2B (P41595 whole entry): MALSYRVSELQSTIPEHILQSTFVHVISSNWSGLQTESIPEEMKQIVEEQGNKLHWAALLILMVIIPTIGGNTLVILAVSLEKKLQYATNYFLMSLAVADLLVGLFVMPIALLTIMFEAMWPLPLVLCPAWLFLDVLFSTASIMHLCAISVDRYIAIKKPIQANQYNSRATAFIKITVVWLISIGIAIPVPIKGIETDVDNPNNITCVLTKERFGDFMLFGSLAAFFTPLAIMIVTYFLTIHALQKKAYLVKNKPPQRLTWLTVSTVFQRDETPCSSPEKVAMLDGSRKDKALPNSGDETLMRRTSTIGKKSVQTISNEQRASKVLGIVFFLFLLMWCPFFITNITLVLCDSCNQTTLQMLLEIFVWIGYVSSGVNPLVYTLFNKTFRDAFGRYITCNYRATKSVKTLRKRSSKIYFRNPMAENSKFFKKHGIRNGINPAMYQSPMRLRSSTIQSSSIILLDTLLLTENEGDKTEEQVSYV

Brc1c(NC2=NCCN2)ccc2nccnc12 [BRIMONIDINE]
AC50 [1]: > 30 µM | AC50 [2]: > 30 µM | AC50 [3]: > 30 µM | AC50 [4]: > 30 µM | AC50 [5]: > 30 µM

NC(=O)CN1CC(O)CC1=O (configuration not stated) [OXIRACETAM]
AC50 [1]: > 30 µM | AC50 [2]: > 30 µM | AC50 [3]: > 30 µM | AC50 [4]: > 30 µM | AC50 [5]: > 30 µM | AC50 [6]: > 30 µM | AC50 [7]: > 30 µM

C[C@H]1COc2c(C3(N)CC3)c(F)cc3c(=O)c(C(=O)O)cn1c23 [PAZUFLOXACIN]
AC50 [1]: > 10 µM | AC50 [2]: > 30 µM | AC50 [3]: > 30 µM | AC50 [5]: > 10 µM | AC50 [6]: > 10 µM

NC(=O)OCC(COC(N)=O)c1ccccc1 [FELBAMATE]
AC50 [1]: > 10 µM | AC50 [2]: > 30 µM | AC50 [3]: > 30 µM | AC50 [4]: > 10 µM | AC50 [5]: > 10 µM | AC50 [6]: > 10 µM

Clc1ccccc1C(c1ccccc1)(c1ccccc1)n1ccnc1 [CLOTRIMAZOLE]
AC50 [1]: > 10 µM | AC50 [2]: > 30 µM | AC50 [7]: > 30 µM

CC(C)(C)NCC(O)COc1cccc2c1CCC(=O)N2 (configuration not stated) [CARTEOLOL]
AC50 [1]: > 10 µM | AC50 [2]: > 30 µM | AC50 [3]: > 30 µM | AC50 [4]: > 10 µM | AC50 [5]: > 10 µM | AC50 [6]: > 10 µM | AC50 [7]: > 30 µM

CC1(C)CCC(CN2CCN(c3ccc(C(=O)NS(=O)(=O)c4ccc(NCC5CCOCC5)c([N+](=O)[O-])c4)c(Oc4cnc5[nH]ccc5c4)c3)CC2)=C(c2ccc(Cl)cc2)C1 [VENETOCLAX]
AC50 [3]: > 30 µM | AC50 [4]: > 30 µM

O=C1C(O)=C([C@H]2CC[C@H](c3ccc(Cl)cc3)CC2)C(=O)c2ccccc21 [ATOVAQUONE]
AC50 [1]: > 30 µM | AC50 [2]: > 30 µM | AC50 [3]: > 30 µM | AC50 [4]: > 30 µM | AC50 [5]: > 30 µM | AC50 [6]: > 30 µM | AC50 [7]: > 30 µM

Cc1nnc2n1-c1ccc(Cl)cc1C(c1ccccc1Cl)=NC2 [TRIAZOLAM]
AC50 [1]: > 10 µM | AC50 [2]: > 30 µM | AC50 [3]: 33 µM | AC50 [5]: > 30 µM | AC50 [6]: > 30 µM | AC50 [7]: > 30 µM

Nc1nc(Cl)nc2c1ncn2[C@H]1C[C@H](O)[C@@H](CO)O1 [CLADRIBINE]
AC50 [1]: > 30 µM | AC50 [2]: > 30 µM | AC50 [3]: 0.97 µM | AC50 [4]: > 30 µM | AC50 [5]: > 30 µM | AC50 [7]: > 30 µM

CC/C(=C(\c1ccccc1)c1ccc(OCCN(C)C)cc1)c1ccccc1 [TAMOXIFEN]
AC50 [1]: > 10 µM | AC50 [2]: > 30 µM | AC50 [7]: > 30 µM

CC(CC1c2ccccc2CCc2ccccc21)CN(C)C (configuration not stated) [BUTRIPTYLINE]
AC50 [1]: > 30 µM | AC50 [2]: > 30 µM | AC50 [3]: > 30 µM | AC50 [7]: 15 µM

COc1cccc(C2(O)CCCCC2CN(C)C)c1 (configuration not stated) [TRAMADOL]
AC50 [1]: > 10 µM | AC50 [2]: > 30 µM | AC50 [3]: > 30 µM | AC50 [5]: > 30 µM | AC50 [6]: > 30 µM | AC50 [7]: > 30 µM

COc1ccc2c3c1O[C@H]1[C@@H](O)CC[C@H]4[C@@H](C2)N(C)CC[C@@]341 [DIHYDROCODEINE]
AC50 [1]: > 30 µM | AC50 [2]: > 30 µM | AC50 [3]: > 30 µM | AC50 [7]: > 30 µM

C#C[C@]1(O)CC[C@H]2[C@@H]3[C@H](C)CC4=C(CCC(=O)C4)[C@H]3CC[C@@]21C [TIBOLONE]
AC50 [1]: > 30 µM | AC50 [2]: > 30 µM | AC50 [3]: 6.9 µM | AC50 [4]: 0.4 µM | AC50 [5]: > 30 µM | AC50 [6]: > 30 µM | AC50 [7]: > 30 µM

Cc1cc(C(C)(C)C)c(O)c(C)c1CC1=NCCN1 [OXYMETAZOLINE]
AC50 [2]: > 30 µM | AC50 [3]: > 30 µM | AC50 [4]: > 30 µM

Cc1c(OCC(F)(F)F)ccnc1C[S+]([O-])c1nc2ccccc2[nH]1 (configuration not stated) [LANSOPRAZOLE]
AC50 [1]: > 10 µM | AC50 [2]: 2.3 µM | AC50 [3]: > 10 µM | AC50 [5]: > 30 µM | AC50 [6]: 3.46 µM | AC50 [7]: > 30 µM

COc1ccc(CCNCC(O)COc2cccc(C)c2)cc1OC (configuration not stated) [BEVANTOLOL]
AC50 [1]: 14 µM | AC50 [2]: > 30 µM | AC50 [3]: > 30 µM | AC50 [4]: > 10 µM | AC50 [5]: > 30 µM | AC50 [6]: > 10 µM | AC50 [7]: 12 µM

Fc1ccc(C(c2ccccc2)(c2ccccc2F)n2ccnc2)cc1 (configuration not stated) [FLUTRIMAZOLE]
AC50 [1]: > 30 µM | AC50 [2]: > 30 µM | AC50 [3]: > 30 µM | AC50 [4]: > 30 µM | AC50 [5]: > 10 µM | AC50 [6]: 30 µM | AC50 [7]: > 30 µM

C[C@@H]1O[C@@H](O[C@@H]2C=C3CC[C@@H]4[C@H](CC[C@]5(C)[C@@H](c6ccc(=O)oc6)CC[C@]45O)[C@@]3(C)CC2)[C@H](O)[C@H](O)[C@H]1O [PROSCILLARIDIN]
AC50 [1]: > 30 µM | AC50 [2]: > 30 µM | AC50 [3]: > 30 µM | AC50 [4]: > 30 µM | AC50 [6]: > 30 µM | AC50 [7]: > 30 µM
